Here are results for 6 compounds from patent publication US20050032145A1, “Methods for measuring activity of glutamine:fructose 6-phosphate amidotransferase and activity of inhibitors thereof” (priority 2002, published 2005).

What all share (type): biochemical
Experiment [1] concerns the target T1, GFAT-alpha (Homo sapiens, UniProt Q06210).
T1 construct: made in house; host or cells: SF9 insect cells (sonicated, centrifuged cell extract)
As to the kind of experiment: GFAT inhibition, microtiter plate glucosamine 6-phosphate assay (GFAT-alpha). Conditions: enzyme expressed in SF9 insect cells; 60 minutes at 37° C.; OD 585 nm; read-out: IC50 (concentration inhibiting 50% of maximum stimulation), GFAT-alpha. The procedure: (§1) For measurement of […], the GFAT enzyme reaction and analysis of the product are preferably carried out directly in a microtiter plate. The preferred reaction volume of 100 μl consists of the substrates glutamine (10 mM) and fructose 6-phosphate (10 mM), phosphate buffered saline (PBS) pH 7.4, ethylenediaminetetraacetic acid (EDTA) (5 mM), dithiothreitol (DTT) (1 mM), and the GFAT enzyme preparation or tissue extract (0.25-50 μl). The incubation mixture is added to the plate, the plate sealed, and placed floating on a 37° C. water bath for 1 hour. Additional incubation mixture is kept on ice to add to standard and control samples. After incubation, non-incubated control and glucosamine 6-phosphate standards of 2.5 to 30 nmoles along with the cold incubator mixture are added to the appropriate wells in the plate. The glucosamine 6-phosphate produced in the incubation mixtures is acetylated by first adding acetic anhydride 1.5% in acetone (10 μl), followed by potassium tetraborate 200 mM (50 μl). The plate is sealed, shaken for 2 minutes on a microshaker, and placed on an 80° C. water bath for 25 minutes. The plate is cooled by placing it on ice for 5 minutes and then Ehrlich's reagent is added (130 μl) (2 g Ehrlich's reagent+0.3 ml water+2.2 ml concentrated hydrochloric acid+17.4 ml acetic acid which is diluted 1:2 in acetic acid before use). The plate is then placed on a 37° C. water bath for 20 minutes and the OD determined at 500-610 nm, preferably 585 nm.
The reaction mixture is made including enough for standard curve samples and kept on ice. The reaction is started by adding the incubation reagents to the microtiter plate, sealing the plate, and placing the plate in a water bath at 37° C. for 1 hr. Standard curve samples are added to the plate, 2.5 to 30 nmoles/well/10 μl, and the cold mix added to control and standard curve samples. Glucosamine 6-phosphate is acetylated with acetic anhydride 1.5%/acetone 10 μl+potassium tetraborate 200 mM 50 μl, by sealing the plate, shaking for 2 minutes and placing on an 80° C. water bath for 25 minutes, then cooling on ice for 5 minutes. Diluted Ehrlich's reagent 130 μl is added and the plate placed on a 37° C. water bath for 20 minutes. The OD is determined at 585 nm.
Stimulation of GFAT activity. […] For most testing, a 60-minute incubation at 37° C. is carried out in 96 well microtiter plates. To give the best heat transfer the plates are sealed with a Costar plate sealer and floated on a 37° C. water bath. Air bubbles are removed from the bottom of the plate to ensure proper heat transfer to all wells. The 100 μl reaction volume consists of glutamine 10 mM, fructose 6-phosphate 10 mM, PBS 1×, EDTA 5 mM DTT 1 mM, and the enzyme preparation. […]

Experiment [2] concerns the target T2, GFAT-beta (Homo sapiens, UniProt O94808).
T2 construct: made in house; host or cells: SF9 insect cells (sonicated, centrifuged cell extract)
As to the kind of experiment: Substrate Km determination, Lineweaver-Burk plot (GFAT-beta). Particulars: extracts from transfected SF9 insect cells, other substrate at saturating levels. The procedure: FIG. 3 illustrates the effect of varying concentrations of the substrates glutamine and fructose 6-phosphate on the enzyme activity of GFAT-alpha and GFAT-beta. FIG. 3A is a graph illustrating incubation with 10 μl glutamine 200 mM+10 μl fructose 6-phosphate 3.125, 6.25, 12.5, 25, 50, 100, and 200 mM. FIG. 3B is a graph illustrating incubation with 10 μl fructose 6-phosphate 200 mM+10 μl glutamine 3.125, 6.25, 12.5, 25, 50, 100, and 200 mM. 10 μl of GFAT-alpha and 5 μl of GFAT-beta extracts from transfected SF9 insect cells are incubated with 1) 10 μl glutamine 200 mM+10 μl fructose 6-phosphate 3.125, 6.25, 12.5, 25, 50, 100, and 200 mM, and 2) 10 μl fructose 6-phosphate 200 mM+10 μl glutamine 3.125, 6.25, 12.5, 25, 50, 100, and 200 mM in an incubation media containing 10 μl PBS 10×, 10 μl EDTA 50 mM, 10 μl, DTT 10 mM and water to 100 μl. The plate is sealed with a Costar plate sealer and incubated for 60 minutes at 37° C. by floating on a water bath. Additional incubation mixture is kept on ice to add to standard and control samples. […] After a 20-minute incubation at 37° C., the OD is determined for each well at 585 nm. […]
FIG. 3C is a table illustrating the Km values of the substrates for the GFAT-alpha and GFAT-beta enzymes calculated from the data generated in FIGS. 3A and 3B. […]

The target in experiment [3] is T2, GFAT-beta. As to the kind of experiment: GFAT inhibition, microtiter plate glucosamine 6-phosphate assay (GFAT-beta). The method, then: as §1, with “The plate is cooled by placing it on ice for 5 minutes and then Ehrlich's reagent is added (130 μl) (2 g Ehrlich's reagent+0.3 ml water+2.2 ml concentrated hydrochloric acid+17.4 ml acetic acid which is diluted 1:2 in acetic acid before use).” left out
The reaction mixture is made including enough for standard curve samples and kept on ice. […] The OD is determined at 585 nm. […]

T2 sequence (O94808 whole entry): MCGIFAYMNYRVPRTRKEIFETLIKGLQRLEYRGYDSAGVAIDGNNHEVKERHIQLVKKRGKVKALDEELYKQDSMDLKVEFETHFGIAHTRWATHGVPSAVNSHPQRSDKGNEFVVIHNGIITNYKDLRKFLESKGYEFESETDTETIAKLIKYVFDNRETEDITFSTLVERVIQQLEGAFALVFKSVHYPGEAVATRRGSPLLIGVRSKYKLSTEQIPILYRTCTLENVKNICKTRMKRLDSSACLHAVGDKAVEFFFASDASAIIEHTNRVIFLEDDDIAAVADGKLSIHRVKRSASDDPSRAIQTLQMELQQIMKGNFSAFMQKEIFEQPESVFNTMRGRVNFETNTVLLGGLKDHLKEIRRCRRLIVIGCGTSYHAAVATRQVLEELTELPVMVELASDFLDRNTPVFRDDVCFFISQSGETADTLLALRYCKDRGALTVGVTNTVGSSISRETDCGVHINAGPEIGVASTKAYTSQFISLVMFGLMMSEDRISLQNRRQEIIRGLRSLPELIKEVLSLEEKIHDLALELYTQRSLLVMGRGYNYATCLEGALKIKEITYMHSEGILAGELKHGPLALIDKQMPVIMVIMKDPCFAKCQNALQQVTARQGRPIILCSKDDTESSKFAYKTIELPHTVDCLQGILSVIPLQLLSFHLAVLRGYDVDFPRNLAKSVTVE
T1 sequence (Q06210 1-681 isoform Q06210-2 I57T): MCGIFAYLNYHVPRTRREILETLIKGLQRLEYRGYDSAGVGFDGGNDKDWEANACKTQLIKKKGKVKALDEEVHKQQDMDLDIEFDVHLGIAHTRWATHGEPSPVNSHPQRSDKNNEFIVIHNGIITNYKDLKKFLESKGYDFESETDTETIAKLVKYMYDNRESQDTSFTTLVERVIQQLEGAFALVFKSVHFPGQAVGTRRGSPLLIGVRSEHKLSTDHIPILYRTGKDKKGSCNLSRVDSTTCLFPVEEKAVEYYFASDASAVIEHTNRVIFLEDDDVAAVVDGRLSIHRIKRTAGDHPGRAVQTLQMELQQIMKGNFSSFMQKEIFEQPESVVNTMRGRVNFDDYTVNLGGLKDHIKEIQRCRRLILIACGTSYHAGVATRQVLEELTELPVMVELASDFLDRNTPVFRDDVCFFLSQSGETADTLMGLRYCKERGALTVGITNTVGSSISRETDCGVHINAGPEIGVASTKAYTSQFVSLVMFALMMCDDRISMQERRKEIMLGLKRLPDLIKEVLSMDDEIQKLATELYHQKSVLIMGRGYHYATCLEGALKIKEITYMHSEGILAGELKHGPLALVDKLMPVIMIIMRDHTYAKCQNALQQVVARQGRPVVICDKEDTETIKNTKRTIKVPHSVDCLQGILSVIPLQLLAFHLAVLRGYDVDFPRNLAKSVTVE

Consider `[N-]=[N+]=CC(=O)CC[C@H](N)C(=O)O` [DON, 6-diazo-5-oxo-L-norleucine], for which the IC50 in experiment [1] was 18 µM. Still for that read-out and setting: the result for `COC(=O)/C=C/C(=O)NC[C@H](N)C(=O)O` [FMDP, N3-(-4-methoxyfumaroyl)-L-2,3-diaminopropanoic acid] reads 4 µM; that for `N[C@@H](CNC(=O)CBr)C(=O)O` [N3-(bromoacetyl)-L-2,3-diaminopropanoic acid], 0.38 µM. For orientation: Km means the substrate concentration at which the rate is half of its maximum. Turning to `NC(=O)CC[C@H](N)C(=O)O` [glutamine], the Km in experiment [2] was 1.99 mM.

Take “uridine-diphosphate-N-acetylglucosamine [UDP-N-acetylglucosamine]”: the IC50 in experiment [3] (enzyme expressed in SF9 insect cells, 60 minutes at 37° C., OD 585 nm, read-out: IC50 (concentration inhibiting 50% of maximum stimulation), GFAT-beta) was determined as 100 µM; in experiment [1], 8 µM. In experiment [3] (ratio of IC50 GFAT-beta to GFAT-alpha), the “times as much required to inhibit GFAT-beta compared with GFAT-alpha” value is on record as “more than 12 times”. Turning to `O=C(CO)[C@@H](O)[C@H](O)[C@H](O)COP(=O)(O)O` [fructose 6-phosphate], the Km in experiment [2] came out at 6.8 mM.
